Data: patent publication US20230085307A1, “PYRIDAZINONE COMPOUND AND HERBICIDE” (NISSAN CHEMICAL CORPORATION, priority 2019, published 2023)

Legend:
late watergrass = assay: Test Example 1: herbicidal activity, application before weed generation under submerged conditions (Table 16, symbol A); type: in vivo, late watergrass (Echinochloa oryzicola); details: amount of applied herbicide 320 g/ha
How it was run: (§1)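 Alluvial soil was flooded to 4 cm depth, weed seeds were sown mixed and 2.5-leaf rice seedlings were transplanted. On sowing day, the compound's emulsion, diluted in water to a set dose, was applied to the water surface. Plants grew at 25–30 °C and were scored 0–5 after three weeks.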

Japanese bulrush = assay: Test Example 1: herbicidal activity, application before weed generation under submerged conditions (Table 16, symbol B); type: in vivo, Japanese bulrush (Schoenoplectus juncoides); details: amount of applied herbicide 320 g/ha
How it was run: as §1

oval-leafed pondweed = assay: Test Example 1: herbicidal activity, application before weed generation under submerged conditions (Table 16, symbol C); type: in vivo, oval-leafed pondweed (Monochoria vaginalis); details: amount of applied herbicide 320 g/ha
How it was run: as §1

barnyard grass [1] = assay: Test Example 3: herbicidal effect by foliage application, Wagner pot (Table 18, symbol H); type: in vivo, barnyard grass (Echinochloa crus-galli); details: amount of applied herbicide 320 g/ha
How it was run: (§2)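 Plants were sown in alluvial soil held under 0.1–0.5 cm standing water and grown 14 days in a greenhouse at 25–30 °C. An emulsifiable formulation, water-diluted to the set dose, was then sprayed onto the foliage, and effects were scored three weeks later using previously defined criteria.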

Chinese sprangletop = assay: Test Example 3: herbicidal effect by foliage application, Wagner pot (Table 18, symbol D); type: in vivo, chinese sprangletop (Leptochloa chinensis); details: amount of applied herbicide 320 g/ha
How it was run: as §2

rice flat sedge = assay: Test Example 3: herbicidal effect by foliage application, Wagner pot (Table 18, symbol E); type: in vivo, rice flat sedge (Cyperus iria); details: amount of applied herbicide 320 g/ha
How it was run: as §2

southern crabgrass [2] = assay: Test Example 4: herbicidal effect by soil treatment (Table 19, symbol F); type: in vivo, southern crabgrass (Digitaria ciliaris); details: amount of applied herbicide 320 g/ha
How it was run: (§3)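 Herbicidal effect was rated 3 weeks after treatment, using the scoring criteria of an earlier test. The compound, formulated as an emulsion and diluted in water to a set herbicide amount, had been sprayed uniformly on soil over freshly sown seeds. Growth took place in a greenhouse at 25° C. to 30° C.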

green foxtail [3] = assay: Test Example 4: herbicidal effect by soil treatment (Table 19, symbol G); type: in vivo, green foxtail (Setaria viridis); details: amount of applied herbicide 320 g/ha
How it was run: as §3

barnyard grass [4] = assay: Test Example 4: herbicidal effect by soil treatment (Table 19, symbol H); type: in vivo, barnyard grass (Echinochloa crus-galli); details: amount of applied herbicide 320 g/ha
How it was run: as §3

wild oat [5] = assay: Test Example 4: herbicidal effect by soil treatment (Table 19, symbol I); type: in vivo, wild oat (Avena fatua); details: amount of applied herbicide 320 g/ha
How it was run: as §3

blackgrass [6] = assay: Test Example 4: herbicidal effect by soil treatment (Table 19, symbol J); type: in vivo, blackgrass (Alopecurus myosuroides); details: amount of applied herbicide 320 g/ha
How it was run: as §3

Italian ryegrass [7] = assay: Test Example 4: herbicidal effect by soil treatment (Table 19, symbol K); type: in vivo, Italian ryegrass (Lolium multiflorum); details: amount of applied herbicide 320 g/ha
How it was run: as §3

windgrass [8] = assay: Test Example 4: herbicidal effect by soil treatment (Table 19, symbol L); type: in vivo, windgrass (Apera spica-venti); details: amount of applied herbicide 320 g/ha
How it was run: as §3

velvetleaf [9] = assay: Test Example 4: herbicidal effect by soil treatment (Table 19, symbol M); type: in vivo, velvetleaf (Abutilon theophrasti); details: amount of applied herbicide 320 g/ha
How it was run: as §3

redroot pigweed = assay: Test Example 4: herbicidal effect by soil treatment (Table 19, symbol N); type: in vivo, redroot pigweed (Amaranthus retroflexus); details: amount of applied herbicide 320 g/ha
How it was run: as §3

lambsquarters [10] = assay: Test Example 4: herbicidal effect by soil treatment (Table 19, symbol O); type: in vivo, lambsquarters (Chenopodium album); details: amount of applied herbicide 320 g/ha
How it was run: as §3

chickweed = assay: Test Example 4: herbicidal effect by soil treatment (Table 19, symbol P); type: in vivo, common chickweed (Stellaria media); details: amount of applied herbicide 320 g/ha
How it was run: as §3

persian speedwell [11] = assay: Test Example 4: herbicidal effect by soil treatment (Table 19, symbol R); type: in vivo, Persian speedwell (Veronica persica); details: amount of applied herbicide 320 g/ha
How it was run: as §3

southern crabgrass [12] = assay: Test Example 5: herbicidal effect by foliage application, plastic box (Table 20, symbol F); type: in vivo, southern crabgrass (Digitaria ciliaris); details: foliage application, 320 g/ha, three weeks after application
How it was run: (§4)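 Foliar spray test: emulsion formulation diluted in water to a set application rate, sprayed onto 14-day-old plants raised in diluvial soil at 25° C to 30° C under glass. Both herbicidal effect and crop effect rated visually three weeks later.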

green foxtail [13] = assay: Test Example 5: herbicidal effect by foliage application, plastic box (Table 20, symbol G); type: in vivo, green foxtail (Setaria viridis); details: foliage application, 320 g/ha, three weeks after application
How it was run: as §4

barnyard grass [14] = assay: Test Example 5: herbicidal effect by foliage application, plastic box (Table 20, symbol H); type: in vivo, barnyard grass (Echinochloa crus-galli); details: foliage application, 320 g/ha, three weeks after application
How it was run: as §4

wild oat [15] = assay: Test Example 5: herbicidal effect by foliage application, plastic box (Table 20, symbol I); type: in vivo, wild oat (Avena fatua); details: foliage application, 320 g/ha, three weeks after application
How it was run: as §4

blackgrass [16] = assay: Test Example 5: herbicidal effect by foliage application, plastic box (Table 20, symbol J); type: in vivo, blackgrass (Alopecurus myosuroides); details: foliage application, 320 g/ha, three weeks after application
How it was run: as §4

Italian ryegrass [17] = assay: Test Example 5: herbicidal effect by foliage application, plastic box (Table 20, symbol K); type: in vivo, Italian ryegrass (Lolium multiflorum); details: foliage application, 320 g/ha, three weeks after application
How it was run: as §4

windgrass [18] = assay: Test Example 5: herbicidal effect by foliage application, plastic box (Table 20, symbol L); type: in vivo, windgrass (Apera spica-venti); details: foliage application, 320 g/ha, three weeks after application
How it was run: as §4

velvetleaf [19] = assay: Test Example 5: herbicidal effect by foliage application, plastic box (Table 20, symbol M); type: in vivo, velvetleaf (Abutilon theophrasti); details: foliage application, 320 g/ha, three weeks after application
How it was run: as §4

lambsquarters [20] = assay: Test Example 5: herbicidal effect by foliage application, plastic box (Table 20, symbol O); type: in vivo, lambsquarters (Chenopodium album); details: foliage application, 320 g/ha, three weeks after application
How it was run: as §4

persian speedwell [21] = assay: Test Example 5: herbicidal effect by foliage application, plastic box (Table 20, symbol R); type: in vivo, Persian speedwell (Veronica persica); details: foliage application, 320 g/ha, three weeks after application
How it was run: as §4

SMILES: COc1ccccc1-c1oc2ccc(F)cc2c1-c1c(O)c(C)nn(C)c1=O [9-019]
- Herbicidal effect, A: late watergrass (late watergrass): 3 (Herbicidal rate of 40% or more and less than 70%)
- Herbicidal effect, B: Japanese bulrush (Japanese bulrush): 0 (Herbicidal rate of 5% or less (almost no effect))
- Herbicidal effect, C: oval-leafed pondweed (oval-leafed pondweed): 0 (Herbicidal rate of 5% or less (almost no effect))
- Herbicidal effect on H (barnyard grass), foliage application (barnyard grass [1]): 4 (Herbicidal rate of 70% or more and less than 90%)
- Herbicidal effect on D (Chinese sprangletop), foliage application (Chinese sprangletop): 4 (Herbicidal rate of 70% or more and less than 90%)
- Herbicidal effect on E (rice flat sedge), foliage application (rice flat sedge): 4 (Herbicidal rate of 70% or more and less than 90%)
- F: southern crabgrass, herbicidal effect grade (southern crabgrass [2]): 0 (Herbicidal rate of 5% or less (almost no effect))
- G: green foxtail, herbicidal effect grade (green foxtail [3]): 0 (Herbicidal rate of 5% or less (almost no effect))
- H: barnyard grass, herbicidal effect grade (barnyard grass [4]): 0 (Herbicidal rate of 5% or less (almost no effect))
- I: wild oat, herbicidal effect grade (wild oat [5]): 0 (Herbicidal rate of 5% or less (almost no effect))
- J: blackgrass, herbicidal effect grade (blackgrass [6]): 0 (Herbicidal rate of 5% or less (almost no effect))
- K: Italian ryegrass, herbicidal effect grade (Italian ryegrass [7]): 1 (Herbicidal rate of 5% or more and less than 20%)
- L: windgrass, herbicidal effect grade (windgrass [8]): 0 (Herbicidal rate of 5% or less (almost no effect))
- M: velvetleaf, herbicidal effect grade (velvetleaf [9]): 0 (Herbicidal rate of 5% or less (almost no effect))
- N: redroot pigweed, herbicidal effect grade (redroot pigweed): 2 (Herbicidal rate of 20% or more and less than 40%)
- O: lambsquarters, herbicidal effect grade (lambsquarters [10]): 1 (Herbicidal rate of 5% or more and less than 20%)
- P: chickweed, herbicidal effect grade (chickweed): 0 (Herbicidal rate of 5% or less (almost no effect))
- R: persian speedwell, herbicidal effect grade (persian speedwell [11]): 0 (Herbicidal rate of 5% or less (almost no effect))
- herbicidal effect on southern crabgrass (F) (southern crabgrass [12]): 0 (Herbicidal rate of 5% or less (almost no effect))
- herbicidal effect on green foxtail (G) (green foxtail [13]): 0 (Herbicidal rate of 5% or less (almost no effect))
- herbicidal effect on barnyard grass (H) (barnyard grass [14]): 0 (Herbicidal rate of 5% or less (almost no effect))
- herbicidal effect on wild oat (I) (wild oat [15]): 0 (Herbicidal rate of 5% or less (almost no effect))
- herbicidal effect on blackgrass (J) (blackgrass [16]): 0 (Herbicidal rate of 5% or less (almost no effect))
- herbicidal effect on Italian ryegrass (K) (Italian ryegrass [17]): 0 (Herbicidal rate of 5% or less (almost no effect))
- herbicidal effect on windgrass (L) (windgrass [18]): 0 (Herbicidal rate of 5% or less (almost no effect))
- herbicidal effect on velvetleaf (M) (velvetleaf [19]): 0 (Herbicidal rate of 5% or less (almost no effect))
- herbicidal effect on lambsquarters (O) (lambsquarters [20]): 0 (Herbicidal rate of 5% or less (almost no effect))
- herbicidal effect on persian speedwell (R) (persian speedwell [21]): 4 (Herbicidal rate of 70% or more and less than 90%)
